# According to the supplement of paper PMC10307832:
# Experiments:
# Assay in all cases: relative viability (nuclei count vs DMSO), 5 days (fraction); higher = more cells survive
# MLN4924 + Bortezomib = compound: NS(=O)(=O)OC[C@@H]1C[C@@H](n2ccc3c(N[C@H]4CCc5ccccc54)ncnc32)C[C@@H]1O [MLN4924] + CC(C)C[C@H](NC(=O)[C@H](Cc1ccccc1)NC(=O)c1cnccn1)B(O)O [Bortezomib] (partner 0.002 µM)
# Procedure, shortened: (§1)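 Dosing by pin tool came one day after lung cancer cell lines were seeded in 1536-well plates, using either one drug or a fixed anchor-drug dose plus five library-drug doses (not always all listed) in √10 steps. After 5 days, nuclei were counted on 4× images. Relative viability is treated-well nuclei count divided by vehicle-well nuclei count, and values are medians of duplicate plates.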
# Carboplatin + Foretinib = compound: C1CC(C1)(C(=O)O)C(=O)O.[NH2-].[NH2-].[Pt+2] [Carboplatin] + COc1cc2c(Oc3ccc(NC(=O)C4(C(=O)Nc5ccc(F)cc5)CC4)cc3F)ccnc2cc1OCCCN1CCOCC1 [Foretinib] (partner 0.25 µM)
# Procedure, shortened: as §1
# MLN4924 + Luminespib = compound: NS(=O)(=O)OC[C@@H]1C[C@@H](n2ccc3c(N[C@H]4CCc5ccccc54)ncnc32)C[C@@H]1O [MLN4924] + CCNC(=O)c1noc(-c2cc(C(C)C)c(O)cc2O)c1-c1ccc(CN2CCOCC2)cc1 [Luminespib] (partner 0.01 µM)
# Procedure, shortened: as §1
# GSK126 + Foretinib = compound: CC[C@H](C)N1C=C(C2=C(C=C(C=C21)C3=CN=C(C=C3)N4CCNCC4)C(=O)NCC5=C(C=C(NC5=O)C)C)C [GSK126] + COc1cc2c(Oc3ccc(NC(=O)C4(C(=O)Nc5ccc(F)cc5)CC4)cc3F)ccnc2cc1OCCCN1CCOCC1 [Foretinib] (partner 0.25 µM)
# Procedure, shortened: as §1
Cell Line,relative viability (MLN4924 + Bortezomib; first compound 0.04 µM),relative viability (MLN4924 + Bortezomib; first compound 0.1265 µM),relative viability (MLN4924 + Bortezomib; first compound 0.4 µM),relative viability (MLN4924 + Bortezomib; first compound 1.265 µM),relative viability (MLN4924 + Bortezomib; first compound 4 µM),relative viability (Carboplatin + Foretinib; first compound 0.08 µM),relative viability (Carboplatin + Foretinib; first compound 0.253 µM),relative viability (Carboplatin + Foretinib; first compound 0.8 µM),relative viability (Carboplatin + Foretinib; first compound 2.53 µM),relative viability (Carboplatin + Foretinib; first compound 8 µM),relative viability (MLN4924 + Luminespib; first compound 0.04 µM),relative viability (MLN4924 + Luminespib; first compound 0.1265 µM),relative viability (MLN4924 + Luminespib; first compound 0.4 µM),relative viability (MLN4924 + Luminespib; first compound 1.265 µM),relative viability (MLN4924 + Luminespib; first compound 4 µM),relative viability (GSK126 + Foretinib; first compound 0.08 µM),relative viability (GSK126 + Foretinib; first compound 0.253 µM),relative viability (GSK126 + Foretinib; first compound 0.8 µM),relative viability (GSK126 + Foretinib; first compound 2.53 µM),relative viability (GSK126 + Foretinib; first compound 8 µM)
COR-L23,0.936,0.915,0.587,0.186,0.105,0.948,0.94,0.91,0.729,0.512,0.67,0.569,0.42,0.174,0.139,1.06,0.931,0.921,0.932,1.01
NCI-H647,0.583,0.425,0.149,0.0614,0.0695,1.15,1.24,1.13,1.17,0.84,0.193,0.157,0.127,0.0558,0.0842,1.21,1.23,0.971,1.45,1.26
LXF-289,0.928,0.707,0.516,0.269,0.162,1.02,0.996,0.992,0.918,0.992,0.61,0.425,0.386,0.153,0.144,0.962,1.01,0.952,0.973,1.02
LOU-NH91,0.418,0.484,0.38,0.393,0.329,0.991,0.998,0.955,0.921,0.922,0.334,0.3,0.281,0.246,0.303,0.991,0.953,0.892,0.974,0.969
NCI-H1355,1.1,1.23,1.12,0.54,0.178,0.979,0.994,1.02,0.956,0.895,0.636,0.684,0.775,0.366,0.208,1.05,1.05,0.964,1.09,0.979
NCI-H441,0.876,0.29,0.236,0.145,0.191,0.929,0.971,0.744,1.01,0.915,0.36,0.387,0.276,0.208,0.245,0.889,0.866,0.975,0.926,0.715
NCI-H2023,0.927,0.796,0.113,0.0794,0.0811,0.859,0.926,0.897,0.695,0.282,0.651,0.539,0.179,0.0673,0.0714,1.02,0.885,0.961,1.05,1.15
NCI-H1666,0.542,0.491,0.348,0.183,0.27,0.977,0.918,0.823,0.832,0.607,1,1.05,0.498,0.324,0.342,0.997,0.925,0.918,0.921,0.917
HCC-15,0.685,0.53,0.234,0.102,0.0928,1.05,1.04,0.969,0.845,0.715,0.168,0.171,0.161,0.125,0.0876,1.08,1.04,1.08,1.04,0.887
NCI-H3122,1.07,0.752,0.35,0.208,0.146,0.944,0.986,0.926,0.91,0.923,0.078,0.063,0.0724,0.0583,0.0491,0.983,1.03,0.985,1.01,0.994
201T,1.16,1.04,1.08,0.4,0.392,1.28,1.05,0.917,0.867,0.618,1.15,0.916,0.887,0.384,0.29,1.17,1.1,1.11,1.37,1.33
RERF-LC-KJ,0.874,0.828,0.244,0.24,0.28,0.933,0.874,0.956,0.772,0.713,1.01,0.629,0.328,0.265,0.272,0.955,0.893,0.852,0.897,0.825
ChaGo-K-1,0.535,0.53,0.436,0.337,0.278,0.872,0.993,0.835,0.745,0.579,0.469,0.399,0.258,0.256,0.177,1.07,1.06,0.878,1,0.835
NCI-H1734,0.817,0.602,0.251,0.134,0.118,0.777,0.877,0.827,0.954,0.812,0.202,0.189,0.187,0.122,0.137,0.931,0.868,0.771,0.817,0.904
NCI-H1651,0.936,0.99,0.966,0.498,0.181,0.791,0.827,0.822,0.795,0.413,0.725,0.745,0.607,0.315,0.224,0.736,0.848,0.868,0.702,0.977
PC-14,0.857,0.823,0.369,0.172,0.101,0.945,0.885,0.942,0.905,0.694,0.151,0.164,0.114,0.116,0.152,0.914,0.886,0.924,0.908,0.918
NCI-H1915,0.982,0.941,0.815,0.22,0.187,1.12,1.13,1.04,1.05,0.81,0.728,0.639,0.761,0.231,0.17,1.22,1.16,1.09,1.08,1.2
NCI-H1975,0.526,0.452,0.26,0.169,0.149,1.08,1.02,0.782,0.88,0.946,0.322,0.556,0.36,0.382,0.252,0.952,0.828,0.886,0.873,0.932
BEN,0.687,0.51,0.267,0.16,0.122,0.778,0.654,0.69,0.658,0.589,0.292,0.201,0.27,0.138,0.158,0.712,0.767,0.575,0.683,0.607
NCI-H1563,1.35,1.03,0.617,0.474,0.59,0.931,0.954,0.92,0.929,0.888,0.556,0.539,0.53,0.435,0.407,1.01,0.9,0.934,0.893,0.95
EPLC-272H,0.808,0.927,0.131,0.163,0.177,0.785,0.852,0.727,0.611,0.602,0.328,0.152,0.219,0.164,0.143,0.809,0.789,0.736,0.742,0.754
NCI-H2228,,1.03,0.309,0.121,0.166,0.907,0.831,0.626,0.845,0.532,0.178,0.181,0.195,0.19,0.113,0.871,0.828,0.789,0.832,0.628
NCI-H661,0.872,0.904,0.637,0.29,0.254,1.01,0.982,0.984,1,0.842,0.744,0.691,0.484,0.385,0.351,1.09,1.05,0.997,1.04,1.09
LU99A,0.873,0.316,0.407,0.159,0.138,0.794,0.749,0.752,0.713,0.522,0.248,0.177,0.203,0.194,0.206,0.826,0.838,0.74,0.746,0.694
NCI-H2405,0.935,0.957,0.639,0.266,0.283,1.15,1.09,0.983,0.958,0.952,0.608,0.469,0.518,0.286,0.241,1.03,1,1.02,1.06,1.02
NCI-H2009,0.889,0.275,0.27,0.079,0.0747,1.25,1.18,1.12,1,0.767,0.924,0.553,0.292,0.18,0.139,1.25,1.25,1.15,1.18,1.35
